Data as given in ChEMBL document CHEMBL5131570, “Discovery of Potent Small-Molecule USP8 Inhibitors for the Treatment of Breast Cancer through Regulating ERα Expression” (J Med Chem, 2022).
Activity calls are given as the source filed them. The rule behind the calls is not given here.

What was measured:
[1] = target: T1, Ubiquitin carboxyl-terminal hydrolase 8 (Homo sapiens, UniProt P40818); assay: Binding affinity to N-terminal His6-tagged USP8 catalytic domain (734 to 1110 residues) (unknown origin) expressed in Escherichia coli BL21 (DE3) cells by surface plasmon resonance method
T1 sequence (P40818 whole entry): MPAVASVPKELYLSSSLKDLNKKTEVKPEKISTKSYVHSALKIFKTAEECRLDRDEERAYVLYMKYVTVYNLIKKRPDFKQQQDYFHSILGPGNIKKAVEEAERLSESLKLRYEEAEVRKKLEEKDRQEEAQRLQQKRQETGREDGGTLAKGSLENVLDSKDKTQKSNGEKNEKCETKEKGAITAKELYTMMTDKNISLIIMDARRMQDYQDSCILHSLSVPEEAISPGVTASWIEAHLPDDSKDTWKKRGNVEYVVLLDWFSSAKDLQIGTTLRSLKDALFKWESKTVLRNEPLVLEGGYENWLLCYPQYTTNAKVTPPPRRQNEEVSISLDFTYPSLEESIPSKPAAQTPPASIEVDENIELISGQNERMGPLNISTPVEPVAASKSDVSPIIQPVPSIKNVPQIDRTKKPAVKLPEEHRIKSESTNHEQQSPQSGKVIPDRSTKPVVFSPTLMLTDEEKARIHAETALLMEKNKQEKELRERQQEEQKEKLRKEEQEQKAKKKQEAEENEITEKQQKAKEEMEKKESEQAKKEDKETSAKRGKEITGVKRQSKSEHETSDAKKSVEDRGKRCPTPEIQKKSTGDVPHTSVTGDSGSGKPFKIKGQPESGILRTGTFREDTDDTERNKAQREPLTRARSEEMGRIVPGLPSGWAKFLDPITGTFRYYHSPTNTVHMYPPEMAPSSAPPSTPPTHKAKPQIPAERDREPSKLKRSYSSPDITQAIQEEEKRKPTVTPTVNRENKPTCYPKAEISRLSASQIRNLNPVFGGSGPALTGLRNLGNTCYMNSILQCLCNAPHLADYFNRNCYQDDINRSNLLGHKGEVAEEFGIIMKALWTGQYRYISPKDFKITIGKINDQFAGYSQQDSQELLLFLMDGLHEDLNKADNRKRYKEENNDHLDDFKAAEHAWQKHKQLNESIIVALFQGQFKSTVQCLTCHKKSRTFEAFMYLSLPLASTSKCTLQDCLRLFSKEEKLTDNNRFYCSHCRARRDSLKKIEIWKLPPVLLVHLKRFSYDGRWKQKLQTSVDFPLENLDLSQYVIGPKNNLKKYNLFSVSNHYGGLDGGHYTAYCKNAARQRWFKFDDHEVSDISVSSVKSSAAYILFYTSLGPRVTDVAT

[2] = target: T2, Ubiquitin carboxyl-terminal hydrolase 8 (Homo sapiens) (UniProt P40818); assay: Binding affinity to N-terminal His6-tagged USP8 catalytic domain (734 to 1110 residues) (unknown origin) expressed in Escherichia coli BL21 (DE3) cells using K63-linked di-ubiquitin as substrate by di-ubiquitin cleavage assay
T2 sequence (whole entry): T1 sequence (P40818 whole entry)

[3] = target: T2, Ubiquitin carboxyl-terminal hydrolase 8 (Homo sapiens); assay: Inhibition of N-terminal His6-tagged USP8 catalytic domain (734 to 1110 residues) in HEK293T intact cells up to 100 uM in presence of HA-Ub-VS probe by USP8 antibody based Western blotting assay; assay type: cell-based
[4] = target: T3, Ubiquitin carboxyl-terminal hydrolase 2 (Homo sapiens, UniProt O75604); assay: Inhibition of USP2 (267 to 599 residues) (unknown origin) catalytic domain expressed in Escherichia coli BL21 (DE3) cells using ubiquitin-rhodamine -110 as substrate incubated for 30 mins followed by substrate addition measured after 30 mins by ubiquitin-rhodamine-110 based fluorometric assay
T3 sequence (O75604 whole entry): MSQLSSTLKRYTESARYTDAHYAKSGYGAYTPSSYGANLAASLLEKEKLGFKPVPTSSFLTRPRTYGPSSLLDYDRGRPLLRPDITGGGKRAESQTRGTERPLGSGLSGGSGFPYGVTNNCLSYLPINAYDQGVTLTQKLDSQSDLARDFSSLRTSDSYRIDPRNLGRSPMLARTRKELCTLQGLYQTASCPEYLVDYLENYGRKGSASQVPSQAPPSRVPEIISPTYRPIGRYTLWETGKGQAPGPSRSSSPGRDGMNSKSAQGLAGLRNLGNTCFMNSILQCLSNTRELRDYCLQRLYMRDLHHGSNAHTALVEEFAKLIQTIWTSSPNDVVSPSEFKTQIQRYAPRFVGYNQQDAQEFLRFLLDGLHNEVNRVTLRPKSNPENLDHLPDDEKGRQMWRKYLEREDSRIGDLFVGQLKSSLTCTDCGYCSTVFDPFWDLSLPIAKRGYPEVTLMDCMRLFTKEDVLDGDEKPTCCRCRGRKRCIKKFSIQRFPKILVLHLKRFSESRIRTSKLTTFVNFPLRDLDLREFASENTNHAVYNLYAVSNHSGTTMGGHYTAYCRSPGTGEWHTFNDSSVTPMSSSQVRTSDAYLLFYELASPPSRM

[5] = test system: MCF7; assay: Induction of apoptosis in human MCF7 cells assessed as increase in apoptotic cells at 0.5 uM incubated for 12 hrs by AnnexinV-FITC/propidium iodide staining based flow cytometry relative to control (reference value: 2.00 %); assay type: functional
[6] = test system: MCF7; assay: Induction of apoptosis in human MCF7 cells assessed as increase in apoptotic cells at 2 uM incubated for 12 hrs by AnnexinV-FITC/propidium iodide staining based flow cytometry relative to control (reference value: 2.00 %); assay type: functional
[7] = test system: MCF7; assay: Induction of apoptosis in human MCF7 cells assessed as reduction in ErbB3 expression level up to 5 uM incubated for 24 hrs by Western blotting analysis; assay type: functional, cell-based
[8] = test system: MCF7; assay: Downregulation of ERalpha mRNA level in human MCF7 cells up to 5 uM measured after 24 hrs by RT-qPCR analysis; assay type: functional, cell-based
[9] = test system: MCF7; assay: Downregulation of progesterone receptor mRNA level in human MCF7 cells up to 5 uM measured after 24 hrs by RT-qPCR analysis; assay type: functional, cell-based
[10] = test system: MCF7; assay: Downregulation of ERalpha expression in human MCF7 cells measured after 24 hrs by Western blotting analysis; assay type: functional, cell-based; settings: dose 0.5-5 µM, DDE = dose-dependent effect
[11] = test system: MCF7; assay: Downregulation of progesterone receptor expression in human MCF7 cells measured after 24 hrs by Western blotting analysis; assay type: functional, cell-based; settings: dose 0.5-5 µM, DDE = dose-dependent effect
[12] = test system: MCF7; assay: Downregulation of progesterone receptor expression in human MCF7 cells assessed as protein stability by measuring reduction in half life measured up to 24 hrs in presence of cycloheximide by Western blotting analysis; assay type: functional, cell-based
[13] = Toxicity in BALB/c mouse xenografted with human MCF7 cells assessed as change in body weight at 5 to 20 mg/kg, […] every other day for 14 days; assay type: organism-based; settings: in vivo, 336 h, dose 5-20 mg/kg, time 14 day
[14] = test system: MCF7; assay: Antitumor activity against human MCF7 cells xenografted in BALB/c mouse assessed as reduction of ERalpha phosphorylation in tumor tissue at 5 to 20 mg/kg, ip administered via gavage every other day for 14 days by immunohistochemistry analysis; assay type: functional, organism-based; settings: dose 5-20 mg/kg, time 14.0 day
[15] = Toxicity in BALB/c mouse xenografted with human MCF7 cells assessed as effect on lung at 5 to 20 mg/kg, […] every other day measured after 14 days by hematoxylin and eosin staining based analysis; assay type: organism-based; settings: in vivo, 336 h, dose 5-20 mg/kg, time 14 day

For `Cc1n[nH]c(C)c1Oc1c(O)cc(O)c2c(=O)cc(-c3ccc(N4CCN(c5ccccn5)CC4)cc3)oc12`, which Kd [1] is on record?
Its Kd is 4.7 µM.

What about the Activity [2] of the same molecule?
Its Activity is “Active”.

What about the inhibition [3] of the same molecule?
Its inhibition is “Active”.

What about the IC50 [4] of the same molecule?
Its IC50 is 50 µM.

What about the Activity [5] of the same molecule?
Its Activity is 2.5%.

And the Activity [6]?
Its Activity is 12.57%.

What about the Activity [7] of the same molecule?
Its Activity is “Active”.

What about the Activity [8] of the same molecule?
The Activity was “Active”.

What about the Activity [9] of the same molecule?
The Activity was “Active”.

What about the Activity [10] of the same molecule?
The Activity was “Dde”.

What about the Activity [11] of the same molecule?
Its Activity is “Dde”.

What about the Activity [12] of the same molecule?
Its Activity is “Active”.

And the Activity [13]?
Its Activity is “Non-Toxic”.

And the Activity [14]?
The Activity was “Active”.

And the Activity [15]?
The Activity was “Non-Toxic”.
